Assay results from patent US11197831B2, “Compositions comprising at least one dispersed active principle and lipid microcapsules” (GALDERMA RESEARCH & DEVELOPMENT, priority 2015, dated 2021).
Values belong to the compound of their own block, whether it stands above or below them.

Key:
[1] = Maximum or visual solubility of the active ingredient in fatty substances and solvents (HPLC-UV); type: physicochemical
Description: (§1) The solubility and the stability of the active ingredient were evaluated by liquid chromatography coupled to a UV detector (HPLC-UV).
The solubility of the active ingredient was evaluated by liquid chromatography coupled to a UV detector (HPLC-UV).

[2] = Stability of the active ingredient in fatty substances and solvents (HPLC-UV); type: physicochemical
Description: as §1

[3] = test system: Whole human abdominal skin; experiment: In vitro skin penetration of dispersed Compound A2 (Franz cells, LC/MS/MS); type: in vitro ADME; settings: irrespective of the formulation tested; 24 h
Description: In this study, the formulations were applied for 24 hours to the skin surface. At the end of the application, Compound A2 is quantified in the various skin compartments: stratum corneum, epidermis, dermis, and receiving liquid according to a validated bioanalysis method performed by positive electrospray ionization tandem mass spectrometry, using a Xevo system (Waters). The quantification limit for Compound A2 is 2 ng/mL. The LC/MS/MS conditions developed made it possible to detect up to 0.1% of the dose applied in each compartment (dose not absorbed, stratum, epidermis, dermis, and receiving liquid).
The results presented in FIG. 5 show the amount penetrated as a percentage of the dose applied (% of the dose applied) according to the various skin compartments.

[4] = test system: Whole human abdominal skin; experiment: In vitro skin penetration kinetics of dispersed Trifarotene (Franz cells, LC/MS/MS); type: in vitro ADME; settings: irrespective of the formulation tested; 24 h
Description: In this study, the formulations were applied for 24 hours to the skin surface. After the application, Trifarotene is quantified at several points in time (1 h, 3 h, 6 h, 8 h and 24 h) in the various skin compartments: stratum corneum, epidermis, dermis, and receiving liquid according to a validated bioanalysis method performed by positive electrospray ionization tandem mass spectrometry, using a Xevo system (Waters). The quantification limit for Trifarotene is 0.01 ng/mL. […] [table] The results presented in FIG. 1 show the amount penetrated as a percentage of the dose applied (% of the dose applied) according to the various skin compartments after 24 h of exposure. The total amount penetrated corresponds to the amount of active ingredient assayed in the various skin compartments (stratum corneum, epidermis, dermis) and the receiving liquid. FIGS. 3 and 4 present the areas under the curve (AUCs) calculated respectively after 8 hours, corresponding to the shortest exposure times, and after 24 hours, corresponding to the longest exposure times. The AUCs were calculated for each kinetics (n=6). They were then statistically compared by one-way ANOVA followed by Dunnett's test.

[5] = in Capric/caprylic acid triglycerides (Miglyol ® 812N)
[6] = in Diisopropyl adipate (Schercemol Dia Ester)
[7] = in Octyldodecanol (Eutanol ® G)
[8] = in PPG-15 stearyl ether (Arlamol PS11E-LQ)
[9] = in Propylene glycol dicaprylate/dicaprate (Myritol ® PC)

- Maximum or visual* solubility (% w/w) (AT) ([1]; in Diethylene glycol monoethyl ether (Transcutol HP)): 13.9 % w/w
- Maximum or visual* solubility (% w/w) (AT) ([1]; visual*, in Capric/caprylic acid triglycerides (Miglyol ® 812N)): <0.1* % w/w
- Maximum or visual* solubility (% w/w) (AT) ([1]; visual*, in Diisopropyl adipate (Schercemol Dia Ester)): <1.0* % w/w
- Maximum or visual* solubility (% w/w) (AT) ([1]; visual*, in Dimethyl capramide (Spectrasolv DMDA)): 20-30* % w/w
- Maximum or visual* solubility (% w/w) (AT) ([1]; visual*, in PPG-15 stearyl ether (Arlamol PS11E-LQ)): <1.0* % w/w
- Stability (3M) (AT/40° C.) ([2]; 3M, AT/40° C., in Diethylene glycol monoethyl ether (Transcutol HP), ** Appearance of coloring at AT and at 40° C.): Stable **
SMILES: C[C@H](NC(=O)N1CCC(c2ccc(O)cc2O)CC1)c1ccccc1 [Compound A2, (S)-4-(2,4-dihydroxyphenyl)-N-(1-phenylethyl)piperidine-1-carboxamide]
- skin distribution [3]: essentially located in the stratum corneum and the epidermis, and more moderately in the dermis

- Maximum solubility (% w/w) (AT) ([1]; in Alkyl (C12-15) benzoate (Crodamol AB)): 0.026 % w/w
- Maximum solubility (% w/w) (AT) [1, 5]: 0.019 % w/w
- Maximum solubility (% w/w) (AT) [1, 6]: 0.297 % w/w
- Maximum solubility (% w/w) (AT) ([1]; in Macrogol oleate (Labrafil ® M1944CS)): 0.156 % w/w
- Maximum solubility (% w/w) (AT) ([1]; in Mineral oil): 0.0001 % w/w
- Maximum solubility (% w/w) (AT) [1, 7]: 0.137 % w/w
- Maximum solubility (% w/w) (AT) [1, 8]: 0.292 % w/w
- Maximum solubility (% w/w) (AT) [1, 9]: 0.069 % w/w
- Maximum solubility (% w/w) (AT) ([1]; in Propylene glycol monocaprylate (Capryol ® 90)): 0.802 % w/w
- Maximum solubility (% w/w) (AT) ([1]; in Propylene glycol monolaurate (Lauroglycol ® FCC)): 0.296 % w/w
- Maximum solubility (% w/w) (AT) ([1]; in Sweet almond oil): 0.011 % w/w
- Stability ([2]; AT/40° C., in Capric/caprylic acid triglycerides (Miglyol ® 812N)): 6 months
- Stability ([2]; AT/40° C., in Diisopropyl adipate (Schercemol Dia Ester)): 6 months
- Stability ([2]; AT/40° C., in Macrogol oleate (Labrafil ® M1944CS)): 6 months
- Stability ([2]; AT/40° C., in PPG-15 stearyl ether (Arlamol PS11E-LQ)): 6 months
- Stability ([2]; AT/40° C., in Propylene glycol monocaprylate (Capryol ® 90)): 6 months
- Stability ([2]; AT/40° C., in Propylene glycol monolaurate (Lauroglycol ® FCC)): 6 months
- Stability ([2]; AT/40° C., in Sweet almond oil): 6 months
- Stability [2, 7]: Unstable
- Stability [2, 9]: Unstable
SMILES: CC(C)(C)c1cc(-c2cc(-c3ccc(C(=O)O)cc3)ccc2OCCO)ccc1N1CCCC1 [Trifarotene]
- skin distribution [4]: essentially located in the stratum corneum and the epidermis, and more moderately in the dermis

- Maximum or visual* solubility (% w/w) (AT) ([1]; in 10/90% Dimethyl sulfoxide/C12-15 alkyl lactate): 0.12 % w/w
- Maximum or visual* solubility (% w/w) (AT) ([1]; in 10/90% Dimethyl sulfoxide/Diisopropyl adipate): 0.38 % w/w
- Maximum or visual* solubility (% w/w) (AT) ([1]; in 10/90% Dimethyl sulfoxide/PPG-15 stearyl ether): 0.07 % w/w
- Maximum or visual* solubility (% w/w) (AT) ([1]; in 20/80% Dimethyl sulfoxide/C12-15 alkyl lactate): 0.74 % w/w
- Maximum or visual* solubility (% w/w) (AT) ([1]; in 20/80% Dimethyl sulfoxide/Schercemol Dia Ester): 3.15 % w/w
- Maximum or visual* solubility (% w/w) (AT) ([1]; in C12-15 alkyl lactate (Ceraphyl 41)): 0.04 % w/w
- Maximum or visual* solubility (% w/w) (AT) [1, 5]: <detection limit
- Maximum or visual* solubility (% w/w) (AT) [1, 6]: 0.02 % w/w
- Maximum or visual* solubility (% w/w) (AT) [1, 8]: 0.01 % w/w
- Maximum or visual* solubility (% w/w) (AT) ([1]; visual*, in Dimethyl sulfoxide (Procipient DMSO)): >20%* % w/w
SMILES: Cc1cc(COc2ccc(S(=O)(=O)NC[C@@H](C(=O)NO)N3CCN(S(=O)(=O)C(C)C)CC3)cc2)c2ccccc2n1 [Compound A3, (S)—N-hydroxy-3-[4-(2-methyl-quinolin-4-ylmethoxy)-benzenesulfonylamino]-2-[4-(propane-2-sulfonyl)-piperazin-1-yl]-propionamide]
